Measured values as given in patent US11274090B2, “P300/CBP HAT inhibitors” (Constellation Pharmaceuticals, Inc., priority 2018, dated 2022).

Assays:
[1] = biological target: p300 HAT domain (residues 1287-1666) (Homo sapiens (Human), UniProt Q09472); test: p300 HAT SPA assay (scintillation proximity assay, acetylation of biotinylated H3(1-21) peptide); format: biochemical; conditions: average of at least 2 replicate titrations
Summary of the method: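 Purified p300 HAT domain reaction transferred to streptavidin plates to capture biotinylated H3(1-21) peptide, incubated 1.5 hr at RT, and read by scintillation proximity. IC50 values derived from concentration-response data.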

[2] = system: acetylation of chromatin at H3K18 (p300 and CBP) in HCT-116 cells; test: H3K18Ac MSD cellular assay; format: cell-based; conditions: 2 hr treatment
Experimental: Select compounds were also evaluated in a H3K18Ac MSD cellular assay that measures the ability of compounds to inhibit the acetylation of chromatin at H3K18, a process catalyzed by p300 and CBP. In a typical experiment the p300 HAT inhibitory activity inside cells of the compounds described herein was determined in accordance with the following experimental method. 20 k HCT-116 cells per well are plated in 75 μL RPMI+10% FBS media the night before treatment. Compounds plated in DMSO at 4× final concentration are resuspended in 30 μL RPMI+10% FBS, then 25 μL is combined with corresponding wells containing cells. Treated cells are incubated for 2 hr at 37° C., then lysed in 500 μL final volume and frozen at −80° C. MSD plates (Meso Scale Discovery) are coated overnight at 4° C. with 60 μL 1:500 α-total histone antibody (Millipore MAB3422) in PBS. Plates are then blocked with 5% BSA in TBST shaking at RT for 1 hr, washed, and 30 μL lysate added to each well for 2 hr shaking at RT. Plates are washed and 25 μL 1:216 α-H3K18ac antibody (CST 9675) in PBS added, then incubated for 1 hr shaking at RT. Plates are washed again, then 25 μL 1:1000 Sulfo-Tag goat α-rabbit antibody (Meso Scale Discovery R32Ab-1) in PBS is added for 1 hr shaking at RT. Plates are washed once more, then 150 μL 1× Read Buffer (MSD #R92TD-3) is added to all wells and read on MSD SECTOR Imager 2400 using the conventional read setup.

[3] = biological target: full length p300 (Homo sapiens (Human), UniProt Q09472); test: full length p300 SPA assay; format: biochemical; conditions: average of at least 2 replicate titrations, read-out: FL P300 IC50
Sequence of full length p300 (Q09472 whole entry): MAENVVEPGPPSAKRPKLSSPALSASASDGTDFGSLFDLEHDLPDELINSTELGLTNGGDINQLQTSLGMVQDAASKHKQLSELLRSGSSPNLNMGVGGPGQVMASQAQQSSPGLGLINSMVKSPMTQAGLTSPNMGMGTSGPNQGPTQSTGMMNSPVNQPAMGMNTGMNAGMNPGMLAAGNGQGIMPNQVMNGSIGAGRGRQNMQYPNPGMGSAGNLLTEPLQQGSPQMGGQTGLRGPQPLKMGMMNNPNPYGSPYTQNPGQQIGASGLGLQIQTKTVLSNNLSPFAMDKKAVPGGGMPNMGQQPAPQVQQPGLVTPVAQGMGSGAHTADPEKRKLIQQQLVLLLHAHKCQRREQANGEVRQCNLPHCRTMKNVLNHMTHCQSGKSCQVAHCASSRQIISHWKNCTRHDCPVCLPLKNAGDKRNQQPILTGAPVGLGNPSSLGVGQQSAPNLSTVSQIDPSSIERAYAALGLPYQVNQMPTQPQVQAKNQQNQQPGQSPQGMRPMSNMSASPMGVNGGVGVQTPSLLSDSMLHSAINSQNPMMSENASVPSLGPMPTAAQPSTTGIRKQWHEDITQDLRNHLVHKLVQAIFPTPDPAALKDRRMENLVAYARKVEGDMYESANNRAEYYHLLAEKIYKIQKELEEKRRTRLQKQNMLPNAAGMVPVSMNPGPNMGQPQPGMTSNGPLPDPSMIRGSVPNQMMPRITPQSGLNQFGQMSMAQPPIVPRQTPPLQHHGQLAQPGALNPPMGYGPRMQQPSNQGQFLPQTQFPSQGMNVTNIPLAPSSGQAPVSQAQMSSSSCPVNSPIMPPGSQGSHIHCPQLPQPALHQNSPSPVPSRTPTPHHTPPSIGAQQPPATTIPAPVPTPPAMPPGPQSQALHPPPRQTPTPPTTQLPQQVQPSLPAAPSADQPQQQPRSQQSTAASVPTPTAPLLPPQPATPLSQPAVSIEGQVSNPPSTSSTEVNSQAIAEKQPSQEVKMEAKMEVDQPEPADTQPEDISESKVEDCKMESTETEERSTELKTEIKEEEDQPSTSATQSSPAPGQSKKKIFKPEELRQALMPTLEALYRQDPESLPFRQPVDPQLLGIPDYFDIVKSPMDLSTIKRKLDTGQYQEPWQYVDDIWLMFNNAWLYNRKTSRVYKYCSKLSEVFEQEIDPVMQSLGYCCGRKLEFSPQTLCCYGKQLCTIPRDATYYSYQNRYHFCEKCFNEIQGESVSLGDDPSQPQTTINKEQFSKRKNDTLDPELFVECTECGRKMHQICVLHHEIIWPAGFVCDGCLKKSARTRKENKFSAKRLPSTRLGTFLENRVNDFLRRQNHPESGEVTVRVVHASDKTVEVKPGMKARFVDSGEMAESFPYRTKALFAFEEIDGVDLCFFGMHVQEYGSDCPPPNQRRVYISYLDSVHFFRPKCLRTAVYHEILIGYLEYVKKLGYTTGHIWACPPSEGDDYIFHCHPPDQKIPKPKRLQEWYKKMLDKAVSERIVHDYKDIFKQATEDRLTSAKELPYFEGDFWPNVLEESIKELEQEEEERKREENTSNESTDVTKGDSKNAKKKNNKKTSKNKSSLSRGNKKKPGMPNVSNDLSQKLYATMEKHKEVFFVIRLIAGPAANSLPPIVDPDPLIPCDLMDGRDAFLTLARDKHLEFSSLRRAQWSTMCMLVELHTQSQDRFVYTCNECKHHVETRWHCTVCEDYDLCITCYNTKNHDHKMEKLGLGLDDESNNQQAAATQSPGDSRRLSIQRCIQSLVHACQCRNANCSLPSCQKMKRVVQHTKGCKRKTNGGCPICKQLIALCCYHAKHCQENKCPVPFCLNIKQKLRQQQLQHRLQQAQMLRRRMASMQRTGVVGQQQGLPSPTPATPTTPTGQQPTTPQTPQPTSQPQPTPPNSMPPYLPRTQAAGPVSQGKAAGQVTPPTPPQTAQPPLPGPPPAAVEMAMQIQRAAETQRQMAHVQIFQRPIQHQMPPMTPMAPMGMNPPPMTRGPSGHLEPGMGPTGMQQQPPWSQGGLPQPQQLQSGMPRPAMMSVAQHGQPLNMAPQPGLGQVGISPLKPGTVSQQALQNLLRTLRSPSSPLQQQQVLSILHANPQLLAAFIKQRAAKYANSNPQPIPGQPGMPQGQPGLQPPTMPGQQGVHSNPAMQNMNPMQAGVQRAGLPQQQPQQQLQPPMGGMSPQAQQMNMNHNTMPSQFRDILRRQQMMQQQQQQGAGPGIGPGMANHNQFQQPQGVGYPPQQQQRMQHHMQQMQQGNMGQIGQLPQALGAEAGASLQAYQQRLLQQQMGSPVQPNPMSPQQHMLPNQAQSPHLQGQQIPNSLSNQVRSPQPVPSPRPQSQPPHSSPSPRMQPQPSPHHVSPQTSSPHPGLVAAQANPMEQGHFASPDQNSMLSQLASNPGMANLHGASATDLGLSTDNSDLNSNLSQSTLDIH
Experimental: Reactions were initiated with 12.5 μL 2 μM biotinylated H3(1-21) peptide (New England Peptide) and run for 1 hr at RT, then quenched with 20 μL stop solution (200 mM Tris pH 8.0, 200 mM EDTA, 2M NaCl, 160 μM anacardic acid). 35 μL of the reaction volume was transferred to a 384-well streptavidin FlashPlate (PerkinElmer) using a Bravo liquid handler (Velocity 11) and incubated for 1.5 hr at RT. Plates were aspirated, washed with 95 μL wash buffer (15 mM Tris pH 8.5, 0.069 μM Brij-35), aspirated, sealed, and scintillation counts read on a Topcount (PerkinElmer). Data were analyzed in Genedata to determine inhibitor IC50 values.
The full length p300 SPA assay was run following the same protocol as p300 HAT SPA assay, but used 6 nM purified full length p300 (purchased from Active Motif) in place of the purified p300-HAT domain.

Sequence of p300 HAT domain (residues 1287-1666) (Q09472 1287-1666): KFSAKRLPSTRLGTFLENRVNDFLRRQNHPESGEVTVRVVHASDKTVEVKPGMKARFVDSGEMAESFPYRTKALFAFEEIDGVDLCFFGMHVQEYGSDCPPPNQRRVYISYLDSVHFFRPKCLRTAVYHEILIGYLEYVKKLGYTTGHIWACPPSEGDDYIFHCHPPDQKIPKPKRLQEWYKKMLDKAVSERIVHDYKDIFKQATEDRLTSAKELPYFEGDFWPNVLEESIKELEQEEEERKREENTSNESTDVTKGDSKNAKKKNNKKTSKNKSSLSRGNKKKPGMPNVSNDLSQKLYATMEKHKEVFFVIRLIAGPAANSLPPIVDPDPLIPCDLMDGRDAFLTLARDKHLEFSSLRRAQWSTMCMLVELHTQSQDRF

With `Cn1cc(-c2cnc(NC(=O)C(NCCc3ccc(C#N)cc3)c3ccccc3)cn2)cn1` (single isomer, unassigned) [56 Isomer 1] the IC50 [1] was 416 nM and the EC50 ([2]; Homo sapiens, HCT-116, 2 h) was 444 nM.

`Cn1cc(-c2ccc(NC(=O)C(NCCc3ccc(C#N)cc3Cl)c3ccccc3)nc2)cn1` (single isomer, unassigned) [51 Isomer 1] gave an IC50 [1] of 15 nM and an EC50 ([2]; Homo sapiens) of 22.9 nM.

In the case of `N#Cc1ccc(CCNC(C(=O)Nc2ccc(N3CCCC3)cn2)c2ccccc2)cc1` (single isomer, unassigned) [37 Isomer 1], the IC50 [1] is reported as 65.4 nM and the EC50 ([2]; Homo sapiens) is reported as 118 nM.

Work on `Cc1cn(-c2ccc(NC(=O)[C@@H](NCCc3ccc(Cl)cc3)c3ccccc3)cc2)cn1` (single isomer, unassigned) [16 Isomer 1] yielded an IC50 [1] of 614 nM and an EC50 ([2]; Homo sapiens) of 1130 nM.

With `Cn1cc(-c2ccc(NC(=O)C(NCC(c3ccc(C#N)cc3)C(F)(F)F)c3ccccc3)nc2)cn1` (single isomer, unassigned) [149 Isomer 2] the IC50 [1] was 19 nM and the IC50 [3] was < 3.24 nM.

Work on `N#Cc1ccc(CCNC(C(=O)Nc2ccc(-c3ccccc3)cn2)c2ccccc2)cc1` (single isomer, unassigned) [34 Isomer 2] yielded an IC50 [1] of 361 nM and an IC50 [3] of 11 nM.

In the case of `Cc1nn(C)c(C)c1-c1ccc(NC(=O)C(NC[C@@H](C)c2ccc(C#N)cc2)c2ccccc2)nc1` (single isomer, unassigned) [130 Isomer 2], the IC50 [1] is reported as 14 nM and the IC50 [3] is reported as < 3.24 nM.

For `CN1CCN(c2ccc(NC(=O)C(NCCc3ccc(Cl)cc3)c3ccccc3)nc2)CC1=O` (single isomer, unassigned) [45 Isomer 1], the IC50 [1] was 26 nM and the IC50 [3] was 1.46 nM.

For `N#Cc1ccc(CCNC(C(=O)Nc2ccc(-c3cn[nH]c3)cn2)c2ccccc2)cc1` (single isomer, unassigned) [7 Isomer 2], the IC50 [1] was 376 nM and the IC50 [3] was 13.4 nM.

`Cc1cnn(-c2ccc(NC(=O)C(NCC(C)c3ccc(C#N)cc3)c3ccccc3)nc2)c1` (single isomer, unassigned) [62 Isomer 4] was tested, and the IC50 [1] was 52.6 nM and the IC50 [3] was < 2 nM.

`CS(=O)(=O)N1CCN(c2ccc(NC(=O)C(NCCc3ccc(C#N)cc3)c3ccccc3)nc2)CC1` (single isomer, unassigned) [68 Isomer 2] gave an IC50 [1] of 70 nM and an IC50 [3] of 1.9 nM.

Compound `Cn1ccc(-c2ccc(NC(=O)C(NCCc3ccc(C#N)cc3)c3ccccc3)nc2)n1` (single isomer, unassigned) [14 Isomer 2] has an IC50 [1] of 191 nM and an EC50 ([2]; Homo sapiens) of 479 nM.

`N#Cc1ccc(CCNC(C(=O)Nc2ccc(-c3cccnn3)cc2)c2ccccc2)cc1` (single isomer, unassigned) [12 Isomer 2] gave an IC50 [1] of 479 nM and an EC50 ([2]; Homo sapiens) of 1800 nM.

For `Cc1cnn(-c2ccc(NC(=O)C(NCC(C)c3ccc(C#N)cc3)c3ccccc3)nc2)c1` (single isomer, unassigned) [62 Isomer 3], the IC50 [1] was > 2000 nM and the IC50 [3] was 618 nM.

For `Cn1cc(-c2ccc3c(c2)CCN3C(=O)C(NCCc2ccc(C#N)cc2)c2ccccc2)cn1` (single isomer, unassigned) [152 Isomer 2], the IC50 [1] was 31.8 nM and the IC50 [3] was < 2 nM.

`Cn1cc(-c2ccc(NC(=O)C(NCCc3ccc(C#N)cc3)c3ccccc3)nc2)cn1` (single isomer, unassigned) [22 Isomer 1] showed an EC50 [2] of 24.6 nM.

`Cc1ccn(-c2ccc(NC(=O)C(NCC(C)c3ccc(C#N)cc3)c3ccccc3)nc2)n1` (single isomer, unassigned) [61 Isomer 4] gave an IC50 [1] of 1340 nM and an IC50 [3] of 68.5 nM.

For `Cn1cc(-c2cccc(NC(=O)C(NCCc3ccc(C#N)cc3)c3ccccc3)n2)cn1` (single isomer, unassigned) [123 Isomer 1], the IC50 [1] was > 2000 nM and the IC50 [3] was 2020 nM.

In the case of `CN1CCN(c2ccc(NC(=O)C(NCCc3ccc(C#N)cc3)c3ccccc3)nc2)CC1=O` (single isomer, unassigned) [44 Isomer 1], the IC50 [1] is reported as > 2000 nM and the IC50 [3] is reported as 278 nM.

`Cn1cc(-c2cnc(NC(=O)C(NCCc3ccc(C#N)cc3)c3ccccc3)cc2F)cn1` (single isomer, unassigned) [74 Isomer 1] was tested, and the IC50 [1] was > 2000 nM and the IC50 [3] was 214 nM.

For `CN1CCN(c2ccc(NC(=O)C(NCCc3ccc(C#N)cc3)c3ccccc3)nc2)CC1=O` (single isomer, unassigned) [44 Isomer 2], the IC50 [1] was 41.6 nM and the IC50 [3] was 2.66 nM.

`CC1CN(c2ccc(NC(=O)C(NC[C@@H](C)c3ccc(C#N)cc3)c3ccccc3)nc2)CC(=O)N1C` (single isomer, unassigned) [124 Isomer 1] gave an IC50 [1] of 11 nM and an IC50 [3] of 1.78 nM.

`Cn1cc(-c2ccc(NC(=O)C(NCCc3ccc(C#N)cc3)c3ccccc3)nc2)cn1` (single isomer, unassigned) [22 Isomer 2] showed an EC50 [2] of 66.8 nM.

For `COC1CN(c2ccc(NC(=O)C(NCCc3ccc(C#N)cc3)c3ccccc3)nc2)C1` (single isomer, unassigned) [31 Isomer 2], the IC50 [1] was > 5000 nM and the IC50 [3] was 167 nM.

`Cc1ccn(-c2ccc(NC(=O)C(NCC(C)c3ccc(C#N)cc3)c3ccccc3)nc2)n1` (single isomer, unassigned) [61 Isomer 1] was tested, and the IC50 [1] was 2410 nM and the IC50 [3] was 120 nM.

Work on `Cc1ccc(CCNC(C(=O)Nc2ccc(-c3cnn(C)c3)cn2)c2ccccc2)cc1` (single isomer, unassigned) [48 Isomer 2] yielded an IC50 [1] of 1560 nM and an IC50 [3] of 31.8 nM.

With `Cn1cc(-c2ccc3c(c2)CCN3C(=O)C(NCCc2ccc(C#N)cc2)c2ccccc2)cn1` (single isomer, unassigned) [152 Isomer 1] the IC50 [1] was 966 nM and the IC50 [3] was 40.6 nM.

For `C[C@H](CNC(C(=O)Nc1ccc(C2CC(=O)N(C)C2)cn1)c1ccccc1)c1ccc(C#N)cc1` (single isomer, unassigned) [109 Isomer 4], the IC50 [1] was 26.1 nM and the IC50 [3] was 3.3 nM.

`Cn1ccc(-c2ccc(NC(=O)C(NCCc3ccc(C#N)cc3)c3ccccc3)nc2)n1` (single isomer, unassigned) [14 Isomer 1] was tested, and the IC50 [1] was > 5000 nM and the IC50 [3] was 176 nM.

With `Cn1cc(-c2cnc(NC(=O)C(NCCc3ccc(C#N)cc3)c3ccccc3)cc2F)cn1` (single isomer, unassigned) [74 Isomer 2] the IC50 [1] was 146 nM and the IC50 [3] was 5 nM.

`Cc1ccc(-c2ccc(NC(=O)C(NCC(C)c3ccc(C#N)cc3)c3ccccc3)nc2)nn1` (single isomer, unassigned) [15 Isomer 4] showed an IC50 [1] of 41.3 nM and an IC50 [3] of 1.5 nM.

In the case of `COc1cc(NC(=O)C(NCCc2ccc(C#N)cc2)c2ccccc2)ccc1-c1cnn(C)c1` (single isomer, unassigned) [25 Isomer 1], the IC50 [1] is reported as 1590 nM and the IC50 [3] is reported as 40.1 nM.

`C[C@H](CNC(C(=O)Nc1ccc(-c2ccn(C)c(=O)c2)cn1)c1ccccc1)c1ccc(C#N)cc1` (single isomer, unassigned) [105 Isomer 2] gave an IC50 [1] of 16.4 nM and an IC50 [3] of 0.7 nM.

Compound `Cc1cnn(-c2ccc(NC(=O)C(NCC(C)c3ccc(C#N)cc3)c3ccccc3)nc2)c1` (single isomer, unassigned) [62 Isomer 2] has an IC50 [1] of 565 nM and an IC50 [3] of 16.7 nM.

For `N#Cc1ccc(CCNC(C(=O)Nc2ccc(-c3ccccc3)cn2)c2ccccc2)cc1` (single isomer, unassigned) [34 Isomer 1], the IC50 [1] was > 5000 nM and the IC50 [3] was 7250 nM.

`CC(=O)N1CCN(c2ccc(NC(=O)C(NCCc3ccc(C#N)cc3)c3ccccc3)nc2)CC1` (single isomer, unassigned) [72 Isomer 2] was tested, and the IC50 [1] was > 2000 nM and the IC50 [3] was 46.9 nM.

With `Cc1c(-c2ccc(NC(=O)C(NC[C@@H](C)c3ccc(C#N)cc3)c3ccccc3)nc2)cnn1C` (single isomer, unassigned) [114 Isomer 2] the IC50 [1] was 10.5 nM and the IC50 [3] was 0.73 nM.

Compound `CN1CCN(c2ccc(NC(=O)C(NCCc3ccc(Cl)cc3)c3ccccc3)nc2)CC1=O` (single isomer, unassigned) [45 Isomer 2] has an IC50 [1] of 1020 nM and an IC50 [3] of 43.1 nM.

`COC1(C)CCN(c2ccc(NC(=O)C(NCCc3ccc(C#N)cc3)c3ccccc3)nc2)CC1` (single isomer, unassigned) [53 Isomer 1] was tested, and the IC50 [1] was 121 nM and the IC50 [3] was 5.16 nM.

`Cn1cc(-c2cnc(NC(=O)C(NCCc3ccc(C#N)cc3)c3ccccc3)c(F)c2)cn1` (single isomer, unassigned) [75 Isomer 1] showed an IC50 [1] of 149 nM and an IC50 [3] of 4.2 nM.

With `Cc1cc(NC(=O)C(NC[C@@H](C)c2ccc(C#N)cc2)c2ccccc2)ncc1-c1cnn(C)c1` (single isomer, unassigned) [115 Isomer 2] the IC50 [1] was 32.7 nM and the IC50 [3] was 1.2 nM.
